Reference: US9695155B2, “Herbicidal substituted pyrimidinyloxy benzene compounds” (E. I. DU PONT DE NEMOURS AND COMPANY, priority 2013, dated 2017)

Columns and labels:
waterhemp = test: Test E preemergence; format: in vivo, Amaranthus rudis; settings: for Waterhemp plant response rating: scale 0 to 100 (0 no effect, 100 complete control); for Plant response rating, Waterhemp: scale 0 to 100, 0 no effect, 100 complete control
Method in brief: (§1)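 Response was scored visually on a 0-100 scale (100 = complete control) versus controls after 14 to 21 days in the greenhouse. Test chemicals, formulated with surfactant in a non-phytotoxic solvent mixture, had been applied preemergence to seeds in silt loam soil or postemergence to 1- to 4-leaf plants in potting medium.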

green foxtail = test: Test E preemergence; format: in vivo, Setaria viridis; settings: for Foxtail, Green plant response rating: scale 0 to 100 (0 no effect, 100 complete control); for Plant response rating, Foxtail, Green: scale 0 to 100, 0 no effect, 100 complete control
Method in brief: as §1

palmer pigweed = test: Test E postemergence; format: in vivo, Amaranthus palmeri
Method in brief: as §1

barnyardgrass [1] = test: Test E preemergence; format: in vivo, Echinochloa crus-galli; settings: preemergence; for Barnyardgrass plant response rating: scale 0 to 100 (0 no effect, 100 complete control); for Plant response rating, Barnyardgrass: scale 0 to 100, 0 no effect, 100 complete control
Method in brief: as §1

ragweed = test: Test E preemergence; format: in vivo, Ambrosia elatior; settings: for Ragweed plant response rating: scale 0 to 100 (0 no effect, 100 complete control); for Plant response rating, Ragweed: scale 0 to 100, 0 no effect, 100 complete control
Method in brief: as §1

sandbur = test: Test E preemergence; format: in vivo, Cenchrus echinatus; settings: for Sandbur plant response rating: scale 0 to 100 (0 no effect, 100 complete control); for Plant response rating, Sandbur: scale 0 to 100, 0 no effect, 100 complete control
Method in brief: as §1

hairy beggarticks = test: Test E postemergence; format: in vivo, Bidens pilosa
Method in brief: as §1

goosegrass = test: Test E preemergence; format: in vivo, Eleusine indica; settings: for Goosegrass plant response rating: scale 0 to 100 (0 no effect, 100 complete control); for Plant response rating, Goosegrass: scale 0 to 100, 0 no effect, 100 complete control
Method in brief: as §1

field bindweed = test: Test E postemergence; format: in vivo, Convolvulus arvensis
Method in brief: as §1

surinam grass = test: Test E preemergence; format: in vivo, Brachiaria decumbens; settings: for Surinam Grass plant response rating: scale 0 to 100 (0 no effect, 100 complete control); for Plant response rating, Surinam Grass: scale 0 to 100, 0 no effect, 100 complete control
Method in brief: as §1

Italian ryegrass = test: Test E preemergence; format: in vivo, Lolium multiflorum; settings: for Ryegrass, Italian plant response rating: scale 0 to 100 (0 no effect, 100 complete control); for Plant response rating, Ryegrass, Italian: scale 0 to 100, 0 no effect, 100 complete control
Method in brief: as §1

kochia = test: Test E preemergence; format: in vivo, Kochia scoparia; settings: for Kochia plant response rating: scale 0 to 100 (0 no effect, 100 complete control); for Plant response rating, Kochia: scale 0 to 100, 0 no effect, 100 complete control
Method in brief: as §1

ducksalad = test: Test C flooded paddy test; format: in vivo, Heteranthera limosa; settings: Flood, scale 0 to 100 (0 no effect, 100 complete control), 13 to 15 days
Method in brief: (§2)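 Flooded 3 cm over soil; compound into paddy water; depth kept constant. Greenhouse 13–15 d.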

barnyardgrass [2] = test: Test C flooded paddy test; format: in vivo, Echinochloa crus-galli; settings: Flood, scale 0 to 100 (0 no effect, 100 complete control), 13 to 15 days
Method in brief: as §2

fall panicum = test: Test E preemergence; format: in vivo, Panicum dichotomiflorum; settings: for Panicum, Fall plant response rating: scale 0 to 100 (0 no effect, 100 complete control); for Plant response rating, Panicum, Fall: scale 0 to 100, 0 no effect, 100 complete control
Method in brief: as §1

wild poinsettia = test: Test E postemergence; format: in vivo, Euphorbia heterophylla
Method in brief: as §1

giant foxtail = test: Test E preemergence; format: in vivo, Setaria faberii; settings: for Foxtail, Giant plant response rating: scale 0 to 100 (0 no effect, 100 complete control); for Plant response rating, Foxtail, Giant: scale 0 to 100, 0 no effect, 100 complete control
Method in brief: as §1

nightshade = test: Test E preemergence; format: in vivo, Solanum ptycanthum; settings: for Nightshade plant response rating: scale 0 to 100 (0 no effect, 100 complete control); for Plant response rating, Nightshade: scale 0 to 100, 0 no effect, 100 complete control
Method in brief: as §1

[3] = Postemergence, 31 g ai/ha, scale 0 to 100
[4] = Postemergence, 62 g ai/ha, scale 0 to 100
[5] = Postemergence, 125 g ai/ha, scale 0 to 100
[6] = Postemergence, 250 g ai/ha, scale 0 to 100
[7] = postemergence, 16 g ai/ha, scale 0 to 100, 0 no effect, 100 complete control

N#Cc1cnn(-c2c(C#N)cccc2Oc2ncc(Cl)cn2)c1 [Compound 200]
Waterhemp plant response rating (waterhemp; 31 g ai/ha): 100 | Waterhemp plant response rating (waterhemp; 62 g ai/ha): 100 | Plant response rating, Waterhemp (waterhemp; 125 g ai/ha): 100 | Plant response rating, Waterhemp (waterhemp; 250 g ai/ha): 100 | Foxtail, Green plant response rating (green foxtail; 16 g ai/ha): 0 | Foxtail, Green plant response rating (green foxtail; 31 g ai/ha): 5 | Foxtail, Green plant response rating (green foxtail; 62 g ai/ha): 30 | Plant response rating, Foxtail, Green (green foxtail; 125 g ai/ha): 75 | Plant response rating, Foxtail, Green (green foxtail; 250 g ai/ha): 100 | Plant response rating, Pigweed, Palmer (palmer pigweed; [3]): 70 | Plant response rating, Pigweed, Palmer (palmer pigweed; [4]): 75 | Plant response rating, Pigweed, Palmer (palmer pigweed; [5]): 98 | Plant response rating, Pigweed, Palmer (palmer pigweed; [6]): 100 | Plant response rating, Pigweed, Palmer (palmer pigweed; [7]): 40 | Barnyardgrass plant response rating (barnyardgrass [1]; 16 g ai/ha): 0 | Barnyardgrass plant response rating (barnyardgrass [1]; 31 g ai/ha): 0 | Barnyardgrass plant response rating (barnyardgrass [1]; 62 g ai/ha): 10 | Plant response rating, Barnyardgrass (barnyardgrass [1]; 125 g ai/ha): 60 | Plant response rating, Barnyardgrass (barnyardgrass [1]; 250 g ai/ha): 95 | Ragweed plant response rating (ragweed; 31 g ai/ha): 0 | Ragweed plant response rating (ragweed; 62 g ai/ha): 80 | Plant response rating, Ragweed (ragweed; 125 g ai/ha): 80 | Plant response rating, Ragweed (ragweed; 250 g ai/ha): 95 | Sandbur plant response rating (sandbur; 31 g ai/ha): 0 | Sandbur plant response rating (sandbur; 62 g ai/ha): 5 | Plant response rating, Sandbur (sandbur; 125 g ai/ha): 40 | Plant response rating, Sandbur (sandbur; 250 g ai/ha): 70 | Plant response rating, Beggarticks (hairy beggarticks; [3]): 60 | Plant response rating, Beggarticks (hairy beggarticks; [4]): 70 | Plant response rating, Beggarticks (hairy beggarticks; [5]): 90 | Plant response rating, Beggarticks (hairy beggarticks; [6]): 95 | Plant response rating, Beggarticks (hairy beggarticks; [7]): 50 | Goosegrass plant response rating (goosegrass; 31 g ai/ha): 5 | Goosegrass plant response rating (goosegrass; 62 g ai/ha): 60 | Plant response rating, Goosegrass (goosegrass; 125 g ai/ha): 80 | Plant response rating, Goosegrass (goosegrass; 250 g ai/ha): 90 | Plant response rating, Field Bindweed (field bindweed; [3]): 70 | Plant response rating, Field Bindweed (field bindweed; [4]): 90 | Plant response rating, Field Bindweed (field bindweed; [5]): 95 | Plant response rating, Field Bindweed (field bindweed; [6]): 95 | Plant response rating, Field Bindweed (field bindweed; [7]): 70 | Surinam Grass plant response rating (surinam grass; 31 g ai/ha): 5 | Surinam Grass plant response rating (surinam grass; 62 g ai/ha): 70 | Plant response rating, Surinam Grass (surinam grass; 125 g ai/ha): 100 | Plant response rating, Surinam Grass (surinam grass; 250 g ai/ha): 100 | Ryegrass, Italian plant response rating (Italian ryegrass; 31 g ai/ha): 0 | Ryegrass, Italian plant response rating (Italian ryegrass; 62 g ai/ha): 20 | Plant response rating, Ryegrass, Italian (Italian ryegrass; 125 g ai/ha): 60 | Plant response rating, Ryegrass, Italian (Italian ryegrass; 250 g ai/ha): 80 | Kochia plant response rating (kochia; 31 g ai/ha): 60 | Kochia plant response rating (kochia; 62 g ai/ha): 95 | Plant response rating, Kochia (kochia; 125 g ai/ha): 100 | Plant response rating, Kochia (kochia; 250 g ai/ha): 100 | Plant response rating, Ducksalad (ducksalad; 31 g ai/ha): 0 | Plant response rating, Ducksalad (ducksalad; 62 g ai/ha): 0 | Plant response rating, Ducksalad (ducksalad; 125 g ai/ha): 20 | Plant response rating, Ducksalad (ducksalad; 250 g ai/ha): 80 | Plant response rating, Barnyardgrass (barnyardgrass [2]; 31 g ai/ha): 0 | Plant response rating, Barnyardgrass (barnyardgrass [2]; 62 g ai/ha): 0 | Plant response rating, Barnyardgrass (barnyardgrass [2]; 125 g ai/ha): 0 | Plant response rating, Barnyardgrass (barnyardgrass [2]; 250 g ai/ha): 25 | Panicum, Fall plant response rating (fall panicum; 31 g ai/ha): 75 | Panicum, Fall plant response rating (fall panicum; 62 g ai/ha): 95 | Plant response rating, Panicum, Fall (fall panicum; 125 g ai/ha): 100 | Plant response rating, Panicum, Fall (fall panicum; 250 g ai/ha): 100 | Plant response rating, Poinsettia, Wild (wild poinsettia; [3]): 80 | Plant response rating, Poinsettia, Wild (wild poinsettia; [4]): 70 | Plant response rating, Poinsettia, Wild (wild poinsettia; [5]): 90 | Plant response rating, Poinsettia, Wild (wild poinsettia; [6]): 90 | Plant response rating, Poinsettia, Wild (wild poinsettia; [7]): 50 | Foxtail, Giant plant response rating (giant foxtail; 16 g ai/ha): 0 | Foxtail, Giant plant response rating (giant foxtail; 31 g ai/ha): 0 | Foxtail, Giant plant response rating (giant foxtail; 62 g ai/ha): 0 | Plant response rating, Foxtail, Giant (giant foxtail; 125 g ai/ha): 25 | Plant response rating, Foxtail, Giant (giant foxtail; 250 g ai/ha): 70 | Nightshade plant response rating (nightshade; 31 g ai/ha): 10 | Nightshade plant response rating (nightshade; 62 g ai/ha): 85 | Plant response rating, Nightshade (nightshade; 125 g ai/ha): 100 | Plant response rating, Nightshade (nightshade; 250 g ai/ha): 100
